Data reported in patent publication US8367094B2, “Antimicrobial material and method for making the same” (priority 2008, dated 2013).

What was measured:
[1] = system: P. aeruginosa; settings: known in the art; cited from earlier work
[2] = system: S. aureus; assay: in vitro agar zone of inhibition (ZOI) test; assay type: cell-based; settings: 24 hours
Protocol: In an experimental procedure, using a commercially-available, medical grade polyurethane (PU) solution (available, for example from ChronoFlex AR, CardioTech International, Inc. of Woburn, Mass.), silver salt(s) is/are manually incorporated into the solution. The silver-loaded ChronoFlex solution is spread onto glass, and dried in a circulating oven at 80 C for 1.5 hours. The loaded PU film was allowed to equilibrate at RT for at least two days, and subsequently demolded. The film was manually cut into circles by means of a cork borer, and placed into serially-labeled Petri dishes. The microbiology technician was blinded regarding which silver salts were incorporated into the film. Two types of silver salts were tested as described generally above: (1) soluble salts for quick release, and (2) an insoluble salt for longevity.
If the test samples show a “zone of inhibition” (“ZOI”) the specimen thus display the capacity to kill the microorganisms tested. The ZOI is measured in mm; the greater the ZOI distance, the more powerful is the microbiocidal effect. Note that, prior to application, the test films were sterilized using short-wave UV at a distance of 2 inches for 10 seconds.
Using a 10 mm sample disc, the microbial growth inhibition was measured from the edge of each sample disc, producing antimicrobial results in accordance with the following Table:

Compound	effectiveness against Gram-negative rods (such as pseudomonas aeruginosa) [1]	microbiocidal activity against S. aureus, in words [2]
[H]/N=C(\N/C(=N/[H])NCCCCCCNC(=N)NC(=N)Nc1ccc(Cl)cc1)Nc1ccc(Cl)cc1 [chlorhexidine]	somewhat ineffective	
O=C([O-])c1ccccc1.[Ag+] [silver benzoate]		totally ineffective
CC(O)C(=O)[O-].[Ag+] (stereo not shown) [silver lactate]		totally ineffective
O=C([O-])C(F)(F)F.[Ag+] [silver trifluoroacetate]		effective against Gram-positives, but for very short periods of time
